Test results reported in ChEMBL document CHEMBL4507300 (2021).

Assays:
[1] = target: Serine/threonine-protein kinase Nek4 (Homo sapiens) (UniProt P51957); settings: Compound concentration 1000.0 nM
[2] = target: 5-hydroxytryptamine receptor 1D (Homo sapiens) (UniProt P28221); settings: Compound concentration 10.0 uM
[3] = target: Insulin-like growth factor 1 receptor (Homo sapiens) (UniProt P08069); settings: Compound concentration 1000.0 nM
[4] = target: Alpha-2A adrenergic receptor (Homo sapiens) (UniProt P08913); settings: Compound concentration 10.0 uM
[5] = target: Fibroblast growth factor receptor 2 (Homo sapiens) (UniProt P21802); settings: Compound concentration 1000.0 nM
[6] = system: Tyrosine-protein kinase ABL1 (Homo sapiens), P00519 [F317L]; settings: Compound concentration 1000.0 nM
[7] = target: Mitogen-activated protein kinase kinase kinase kinase 3 (Homo sapiens) (UniProt Q8IVH8); settings: Compound concentration 1000.0 nM
[8] = target: 3-phosphoinositide-dependent protein kinase 1 (Homo sapiens) (UniProt O15530); settings: Compound concentration 1000.0 nM
[9] = target: Protein kinase C iota type (Homo sapiens) (UniProt P41743); settings: Compound concentration 1000.0 nM
[10] = target: Mitogen-activated protein kinase 4 (Homo sapiens) (UniProt P31152); settings: Compound concentration 1000.0 nM
[11] = target: Serine/threonine-protein kinase 38-like (Homo sapiens) (UniProt Q9Y2H1); settings: Compound concentration 1000.0 nM
[12] = target: Aurora kinase B (Homo sapiens) (UniProt Q96GD4); settings: Compound concentration 1000.0 nM
[13] = target: Fibroblast growth factor receptor 1 (Homo sapiens) (UniProt P11362); settings: Compound concentration 1000.0 nM
[14] = system: Tyrosine-protein kinase ABL1 (Homo sapiens), P00519 [F317I]; settings: Compound concentration 1000.0 nM
[15] = target: Serine/threonine-protein kinase PAK 2 (Homo sapiens) (UniProt Q13177); settings: Compound concentration 1000.0 nM
[16] = target: Rho-associated protein kinase 2 (Homo sapiens) (UniProt O75116); settings: Compound concentration 1000.0 nM
[17] = target: Macrophage colony-stimulating factor 1 receptor (Homo sapiens) (UniProt P07333); settings: Compound concentration 1000.0 nM
[18] = target: Serine/threonine-protein kinase N2 (Homo sapiens) (UniProt Q16513); settings: Compound concentration 1000.0 nM
[19] = target: Interferon-induced, double-stranded RNA-activated protein kinase (Homo sapiens) (UniProt P19525); settings: Compound concentration 1000.0 nM
[20] = system: Receptor-type tyrosine-protein kinase FLT3 (Homo sapiens), P36888 [R834Q]; settings: Compound concentration 1000.0 nM
[21] = system: Tyrosine-protein kinase ABL1 (Homo sapiens), P00519 [T315I]; settings: Compound concentration 1000.0 nM
[22] = target: Cyclin-dependent kinase 15 (Homo sapiens) (UniProt Q96Q40); settings: Compound concentration 1000.0 nM
[23] = target: Mast/stem cell growth factor receptor Kit (Homo sapiens) (UniProt P10721); settings: Compound concentration 1000.0 nM
Mast/stem cell growth factor receptor Kit (Homo sapiens), sequence (P10721 whole entry): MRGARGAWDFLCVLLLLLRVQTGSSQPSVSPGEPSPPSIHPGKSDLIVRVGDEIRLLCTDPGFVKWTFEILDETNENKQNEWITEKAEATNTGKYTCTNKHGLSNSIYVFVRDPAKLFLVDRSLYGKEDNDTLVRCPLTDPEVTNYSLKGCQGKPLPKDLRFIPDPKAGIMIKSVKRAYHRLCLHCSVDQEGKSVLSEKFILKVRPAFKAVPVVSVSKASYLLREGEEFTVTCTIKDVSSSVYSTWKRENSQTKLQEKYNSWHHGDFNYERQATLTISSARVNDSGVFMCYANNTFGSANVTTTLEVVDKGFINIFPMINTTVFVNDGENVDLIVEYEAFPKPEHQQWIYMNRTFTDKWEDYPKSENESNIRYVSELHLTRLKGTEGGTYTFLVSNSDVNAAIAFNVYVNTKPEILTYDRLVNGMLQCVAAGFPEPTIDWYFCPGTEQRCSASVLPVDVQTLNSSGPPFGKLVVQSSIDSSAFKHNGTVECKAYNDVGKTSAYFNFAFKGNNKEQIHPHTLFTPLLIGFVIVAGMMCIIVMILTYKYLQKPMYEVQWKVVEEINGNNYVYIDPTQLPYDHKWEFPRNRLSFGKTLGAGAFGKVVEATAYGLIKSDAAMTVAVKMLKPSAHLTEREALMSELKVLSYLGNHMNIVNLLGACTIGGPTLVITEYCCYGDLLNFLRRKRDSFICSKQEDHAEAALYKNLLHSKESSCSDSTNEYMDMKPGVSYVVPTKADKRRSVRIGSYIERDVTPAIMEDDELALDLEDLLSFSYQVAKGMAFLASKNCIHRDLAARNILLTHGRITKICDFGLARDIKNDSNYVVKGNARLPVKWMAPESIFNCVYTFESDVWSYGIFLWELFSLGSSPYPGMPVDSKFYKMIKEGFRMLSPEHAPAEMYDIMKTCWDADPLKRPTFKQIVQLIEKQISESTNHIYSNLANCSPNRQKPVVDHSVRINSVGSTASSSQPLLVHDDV

[24] = target: MAP kinase-activated protein kinase 5 (Homo sapiens) (UniProt Q8IW41); settings: Compound concentration 1000.0 nM
[25] = target: Tyrosine-protein kinase receptor Tie-1 (Homo sapiens) (UniProt P35590); settings: Compound concentration 1000.0 nM
Tyrosine-protein kinase receptor Tie-1 (Homo sapiens), sequence (P35590 whole entry): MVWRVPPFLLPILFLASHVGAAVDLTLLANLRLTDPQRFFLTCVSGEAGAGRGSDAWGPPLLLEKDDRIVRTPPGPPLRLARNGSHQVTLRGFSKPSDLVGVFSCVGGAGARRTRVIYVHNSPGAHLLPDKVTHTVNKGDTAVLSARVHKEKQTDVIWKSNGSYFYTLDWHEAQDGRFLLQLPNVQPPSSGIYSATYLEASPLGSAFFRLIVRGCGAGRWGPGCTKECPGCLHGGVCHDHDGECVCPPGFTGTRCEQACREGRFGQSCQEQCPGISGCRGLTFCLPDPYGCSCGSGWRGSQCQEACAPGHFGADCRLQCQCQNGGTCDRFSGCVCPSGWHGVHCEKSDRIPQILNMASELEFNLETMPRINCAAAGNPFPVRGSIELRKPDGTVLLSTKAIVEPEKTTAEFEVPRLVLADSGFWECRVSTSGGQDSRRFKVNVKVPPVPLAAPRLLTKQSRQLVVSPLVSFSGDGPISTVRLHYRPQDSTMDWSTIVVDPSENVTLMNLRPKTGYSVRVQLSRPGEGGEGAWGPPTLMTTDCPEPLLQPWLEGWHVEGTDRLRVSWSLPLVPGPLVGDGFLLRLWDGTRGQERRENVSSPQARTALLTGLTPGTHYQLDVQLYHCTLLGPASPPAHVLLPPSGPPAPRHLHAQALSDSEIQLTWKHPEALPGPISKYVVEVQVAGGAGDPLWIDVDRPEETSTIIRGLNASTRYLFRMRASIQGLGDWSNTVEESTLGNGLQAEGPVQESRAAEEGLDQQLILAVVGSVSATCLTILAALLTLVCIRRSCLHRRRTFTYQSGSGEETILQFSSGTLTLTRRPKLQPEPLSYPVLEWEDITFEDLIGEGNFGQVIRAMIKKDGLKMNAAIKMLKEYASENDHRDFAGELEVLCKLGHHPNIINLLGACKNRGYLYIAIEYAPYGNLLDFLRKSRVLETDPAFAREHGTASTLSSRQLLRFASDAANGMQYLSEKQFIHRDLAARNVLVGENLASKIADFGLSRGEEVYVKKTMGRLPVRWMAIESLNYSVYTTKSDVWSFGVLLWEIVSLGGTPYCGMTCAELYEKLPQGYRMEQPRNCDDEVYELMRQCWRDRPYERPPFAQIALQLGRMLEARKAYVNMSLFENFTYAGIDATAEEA

[26] = target: Ribosomal protein S6 kinase alpha-6 (Homo sapiens) (UniProt Q9UK32); settings: Compound concentration 1000.0 nM
[27] = target: Serine/threonine-protein kinase 32A (Homo sapiens) (UniProt Q8WU08); settings: Compound concentration 1000.0 nM
[28] = target: Cyclin-dependent kinase 4 (Homo sapiens) (UniProt P11802); settings: Compound concentration 1000.0 nM
[29] = target: Sodium-dependent noradrenaline transporter (Homo sapiens) (UniProt P23975); settings: Compound concentration 10.0 uM
[30] = target: Discoidin domain-containing receptor 2 (Homo sapiens) (UniProt Q16832); settings: Compound concentration 1000.0 nM
[31] = target: Protein-tyrosine kinase 2-beta (Homo sapiens) (UniProt Q14289); settings: Compound concentration 1000.0 nM
Protein-tyrosine kinase 2-beta (Homo sapiens), sequence (Q14289 whole entry, looked up): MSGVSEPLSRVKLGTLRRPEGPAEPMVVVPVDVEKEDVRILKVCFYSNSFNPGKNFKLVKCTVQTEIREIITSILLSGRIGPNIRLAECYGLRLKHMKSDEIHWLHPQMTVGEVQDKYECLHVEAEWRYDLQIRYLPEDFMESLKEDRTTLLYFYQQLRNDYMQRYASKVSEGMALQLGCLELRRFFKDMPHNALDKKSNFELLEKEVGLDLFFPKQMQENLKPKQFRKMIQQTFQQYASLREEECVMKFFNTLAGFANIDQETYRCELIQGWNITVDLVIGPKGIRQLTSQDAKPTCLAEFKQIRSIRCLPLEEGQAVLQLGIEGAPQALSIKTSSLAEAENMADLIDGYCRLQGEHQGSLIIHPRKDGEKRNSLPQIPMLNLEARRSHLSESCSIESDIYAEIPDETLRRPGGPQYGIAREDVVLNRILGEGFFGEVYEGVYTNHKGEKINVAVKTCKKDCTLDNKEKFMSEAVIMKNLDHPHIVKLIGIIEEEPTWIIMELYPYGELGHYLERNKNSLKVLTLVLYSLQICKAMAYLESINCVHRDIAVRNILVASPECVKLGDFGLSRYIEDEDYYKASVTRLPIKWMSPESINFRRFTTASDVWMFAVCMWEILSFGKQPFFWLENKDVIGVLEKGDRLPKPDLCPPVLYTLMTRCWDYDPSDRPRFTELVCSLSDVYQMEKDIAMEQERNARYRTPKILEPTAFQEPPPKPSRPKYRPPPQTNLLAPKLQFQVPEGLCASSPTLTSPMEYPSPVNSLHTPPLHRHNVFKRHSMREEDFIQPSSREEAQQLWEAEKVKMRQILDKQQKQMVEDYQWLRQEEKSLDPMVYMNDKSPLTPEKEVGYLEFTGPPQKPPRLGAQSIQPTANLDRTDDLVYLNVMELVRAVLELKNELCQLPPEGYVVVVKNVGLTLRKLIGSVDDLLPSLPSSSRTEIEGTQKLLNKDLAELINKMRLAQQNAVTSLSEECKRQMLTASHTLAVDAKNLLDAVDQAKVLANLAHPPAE

[32] = system: Tyrosine-protein kinase ABL1 (Homo sapiens), P00519 [F317I]; settings: Compound concentration 1000.0 nM; remark: listed apart in the source
[33] = target: TGF-beta receptor type-2 (Homo sapiens) (UniProt P37173); settings: Compound concentration 1000.0 nM
[34] = target: Dual specificity protein kinase TTK (Homo sapiens) (UniProt P33981); settings: Compound concentration 1000.0 nM
Dual specificity protein kinase TTK (Homo sapiens), sequence (P33981 whole entry): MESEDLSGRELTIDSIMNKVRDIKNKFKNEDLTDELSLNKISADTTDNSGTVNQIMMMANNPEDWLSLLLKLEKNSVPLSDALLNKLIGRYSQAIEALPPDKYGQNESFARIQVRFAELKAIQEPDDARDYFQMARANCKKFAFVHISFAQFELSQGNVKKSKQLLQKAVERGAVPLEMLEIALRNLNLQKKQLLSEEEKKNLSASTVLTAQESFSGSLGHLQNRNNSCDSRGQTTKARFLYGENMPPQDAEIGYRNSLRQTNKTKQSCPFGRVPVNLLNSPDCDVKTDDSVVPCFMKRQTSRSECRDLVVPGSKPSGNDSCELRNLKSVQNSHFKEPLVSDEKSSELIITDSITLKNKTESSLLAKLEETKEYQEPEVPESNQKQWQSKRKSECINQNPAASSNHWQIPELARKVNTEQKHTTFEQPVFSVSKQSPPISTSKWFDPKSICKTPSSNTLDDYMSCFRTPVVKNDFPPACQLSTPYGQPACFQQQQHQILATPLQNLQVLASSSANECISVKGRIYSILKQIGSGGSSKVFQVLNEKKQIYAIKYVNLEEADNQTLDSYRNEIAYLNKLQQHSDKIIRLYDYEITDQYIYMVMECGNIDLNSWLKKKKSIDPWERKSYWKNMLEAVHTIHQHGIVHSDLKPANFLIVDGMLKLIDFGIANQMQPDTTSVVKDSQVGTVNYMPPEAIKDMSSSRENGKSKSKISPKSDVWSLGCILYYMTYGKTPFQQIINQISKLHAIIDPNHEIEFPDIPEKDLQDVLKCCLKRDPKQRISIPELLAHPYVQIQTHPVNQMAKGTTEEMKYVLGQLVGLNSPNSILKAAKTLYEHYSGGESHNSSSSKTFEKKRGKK

[35] = system: Epidermal growth factor receptor (Homo sapiens), P00533 [G719S]; settings: Compound concentration 1000.0 nM
[36] = target: Serine/threonine-protein kinase Nek11 (Homo sapiens) (UniProt Q8NG66); settings: Compound concentration 1000.0 nM
[37] = target: Cyclin-dependent kinase 7 (Homo sapiens) (UniProt P50613); settings: Compound concentration 1000.0 nM
[38] = target: Serine/threonine-protein kinase PAK 6 (Homo sapiens) (UniProt Q9NQU5); settings: Compound concentration 1000.0 nM
[39] = system: Tyrosine-protein kinase ABL1 (Homo sapiens), P00519 [H396P]; settings: Compound concentration 1000.0 nM
[40] = target: Casein kinase II subunit alpha' (Homo sapiens) (UniProt P19784); settings: Compound concentration 1000.0 nM
[41] = system: Tyrosine-protein kinase ABL1 (Homo sapiens), P00519 [Q252H]; settings: Compound concentration 1000.0 nM
[42] = system: Epidermal growth factor receptor (Homo sapiens), P00533 [UNDEFINED MUTATION]; settings: Compound concentration 1000.0 nM
[43] = target: 5-hydroxytryptamine receptor 1A (Homo sapiens) (UniProt P08908); settings: Compound concentration 10.0 uM
[44] = target: Ephrin type-A receptor 8 (Homo sapiens) (UniProt P29322); settings: Compound concentration 1000.0 nM
[45] = target: Serine/threonine-protein kinase VRK2 (Homo sapiens) (UniProt Q86Y07); settings: Compound concentration 1000.0 nM
[46] = target: Non-receptor tyrosine-protein kinase TNK1 (Homo sapiens) (UniProt Q13470); settings: Compound concentration 1000.0 nM

Serine/threonine-protein kinase Nek4 (Homo sapiens), sequence (P51957 whole entry, looked up): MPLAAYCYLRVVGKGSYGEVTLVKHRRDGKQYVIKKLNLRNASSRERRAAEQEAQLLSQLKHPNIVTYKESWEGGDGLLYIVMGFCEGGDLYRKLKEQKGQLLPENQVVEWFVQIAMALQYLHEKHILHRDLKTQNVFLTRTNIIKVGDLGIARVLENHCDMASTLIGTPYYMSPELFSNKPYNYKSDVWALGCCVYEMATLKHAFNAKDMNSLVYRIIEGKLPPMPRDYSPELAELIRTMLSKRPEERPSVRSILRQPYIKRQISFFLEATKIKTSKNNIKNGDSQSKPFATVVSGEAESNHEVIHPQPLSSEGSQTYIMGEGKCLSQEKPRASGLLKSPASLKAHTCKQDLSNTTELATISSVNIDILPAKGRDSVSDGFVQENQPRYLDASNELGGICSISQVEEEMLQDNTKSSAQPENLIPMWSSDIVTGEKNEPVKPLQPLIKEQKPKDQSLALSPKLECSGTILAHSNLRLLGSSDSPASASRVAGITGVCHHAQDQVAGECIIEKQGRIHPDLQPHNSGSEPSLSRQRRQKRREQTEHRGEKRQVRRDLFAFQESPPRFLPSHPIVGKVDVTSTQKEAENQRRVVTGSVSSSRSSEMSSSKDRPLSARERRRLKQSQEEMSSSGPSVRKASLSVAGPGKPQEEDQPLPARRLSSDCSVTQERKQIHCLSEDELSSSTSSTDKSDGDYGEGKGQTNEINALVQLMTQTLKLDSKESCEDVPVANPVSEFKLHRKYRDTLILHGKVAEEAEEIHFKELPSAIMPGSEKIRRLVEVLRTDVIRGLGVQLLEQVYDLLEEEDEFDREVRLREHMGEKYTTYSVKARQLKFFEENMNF

COc1cccc(CNC(=O)c2nc3scc(COCc4ccc(C(=O)O)cc4)c3c(=O)[nH]2)c1 [T-26c]
inactive: residual activity [1] 83.8% | inhibition [2] -1.39% | residual activity [3] 100% | inhibition [4] 17.2% | residual activity [5] 100% | residual activity [6] 78.7% | residual activity [7] 99.8% | residual activity [8] 87.8% | residual activity [9] 100% | residual activity [10] 80% | residual activity [11] 87.7% | residual activity [12] 71.3% | residual activity [13] 86.5% | residual activity [14] 62.4% | residual activity [15] 100% | residual activity [16] 69.1% | residual activity [17] 100% | residual activity [18] 98% | residual activity [19] 97.7% | residual activity [20] 77.9% | residual activity [21] 77.5% | residual activity [22] 97.6% | residual activity [23] 93% | residual activity [24] 93.8% | residual activity [25] 100% | residual activity [26] 100% | residual activity [27] 100% | residual activity [28] 61.7% | inhibition [29] 12.6% | residual activity [30] 98.9% | residual activity [31] 85.3% | residual activity [32] 96.4% | residual activity [33] 97% | residual activity [34] 92.8% | residual activity [35] 100% | residual activity [36] 65.6% | residual activity [37] 80.5% | residual activity [38] 100% | residual activity [39] 86.4% | residual activity [40] 79.4% | residual activity [41] 91.4% | residual activity [42] 74% | inhibition [43] 7.7% | residual activity [44] 82.5% | residual activity [45] 74.2% | residual activity [46] 100%
